{"source": "PubChem BioAssay AID493250", "about": "(Broad Institute, 2011)", "note": "Calls of active or inactive are those of the source.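 Rule for the calls: active = signal decrease with fitted half-maximal dose at or below ten times the highest valid tested dose; inconclusive = poor fit, or flat fit at 30 to 70% inhibition; inactive = the rest.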", "data": [{"molecular_target": "Zinc finger protein mex-5 (Caenorhabditis elegans) (UniProt Q9XUB2)", "sequence (Q9XUB2 whole entry, looked up)": "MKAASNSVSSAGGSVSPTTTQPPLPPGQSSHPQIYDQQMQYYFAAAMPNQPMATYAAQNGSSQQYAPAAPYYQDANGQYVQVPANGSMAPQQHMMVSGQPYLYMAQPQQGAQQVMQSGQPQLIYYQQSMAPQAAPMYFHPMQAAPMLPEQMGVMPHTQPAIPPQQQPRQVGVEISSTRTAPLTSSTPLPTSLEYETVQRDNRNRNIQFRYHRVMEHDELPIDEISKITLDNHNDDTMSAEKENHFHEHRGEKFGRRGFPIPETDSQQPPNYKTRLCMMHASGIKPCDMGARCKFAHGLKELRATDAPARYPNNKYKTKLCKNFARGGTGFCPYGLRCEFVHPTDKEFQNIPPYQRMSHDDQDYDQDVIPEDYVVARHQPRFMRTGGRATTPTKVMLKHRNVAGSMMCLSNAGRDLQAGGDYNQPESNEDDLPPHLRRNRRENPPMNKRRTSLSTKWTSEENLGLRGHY", "experiment": "inhibitors of MEX-5 RNA binding, dose response, biochemical, fluorescence polarization, C. elegans, cherry-picked, round 3 (AID 493250)", "conditions": "purified MEX-5-MBP, FITC-TCR2 RNA fluorescence polarization; at 10 µM (top of the series)", "values": [{"molecule": "COc1ccccc1N1C(=O)C2C(C(=O)c3ccccc3)=NN(c3ccccc3OC)C2C1=O", "note": "(configuration not stated)", "activity change, negative = inhibition": "inactive"}, {"molecule": "O=C(N/N=C/c1cccnc1)c1ccccc1", "activity change, negative = inhibition": "inactive"}, {"molecule": "O=C1OC(C(=O)O)Cc2ccccc21", "note": "(configuration not stated)", "activity change, negative = inhibition": "inactive"}, {"molecule": "Cc1ccc(Nc2nc(-c3ccc(C)cc3)c(CC(=O)O)s2)cc1", "activity change, negative = inhibition": "inactive"}, {"molecule": "CC1=CC2=NC(=O)/C(=C\\c3ccc(-c4cccc(Cl)c4)o3)C(=N)N2O1", "activity change, negative = inhibition": "inactive"}, {"molecule": "O=C(O)c1ccc(NCc2cccnc2)cc1", "activity change, negative = inhibition": "inactive"}, {"molecule": "CN(N)N=Nc1nc2c([nH]1)c(=O)n(C)c(=O)n2C", "activity change, negative = inhibition": "inactive"}, {"molecule": "O=C(Nc1ccc(OCc2ccccc2)cc1)Nc1cccnc1", "activity change, negative = inhibition": "inactive"}, {"molecule": "COc1ccc(N=Nc2c(C)[nH][nH]c2=O)cc1", "activity change, negative = inhibition": "inactive"}, {"molecule": "CCc1ccc(S(=O)(=O)Nc2ccc(O)c3c(=O)cc(-c4ccccc4Cl)oc23)cc1", "activity change, negative = inhibition": "inactive"}, {"molecule": "NC(=S)N=Nc1c(O)[nH]c2cc(F)c(F)cc12", "activity change, negative = inhibition": "inactive"}, {"molecule": "O=C1NC(=O)/C(=C/c2ccc(N3CCOCC3)o2)N1", "activity change, negative = inhibition": "inactive"}, {"molecule": "Nc1c(C(=O)Nc2cccc(Cl)c2Cl)sc2nc(-c3cccnc3)ccc12", "activity change, negative = inhibition": "inactive"}, {"molecule": "Cc1nc2cc(C(=O)O)ccc2n1-c1ccc(F)cc1F", "activity change, negative = inhibition": "inactive"}, {"molecule": "COc1ccc(/C=N/Nc2nc(=O)[nH]nc2C)cc1[N+](=O)[O-]", "activity change, negative = inhibition": "inactive"}, {"molecule": "CN=c1scc(-c2ccco2)n1/N=C/c1ccc(O)c(O)c1", "activity change, negative = inhibition": "inactive"}, {"molecule": "Cc1ccc(C(=O)/C=C/c2ccccc2[N+](=O)[O-])cc1", "activity change, negative = inhibition": "inactive"}, {"molecule": "COc1cc(/C=N/NC(=S)Nc2cccc(C(=O)O)c2)ccc1O", "activity change, negative = inhibition": "inactive"}, {"molecule": "CCN(CC)c1ccc(N2C(=O)c3ccccc3C2=O)cc1", "activity change, negative = inhibition": "inactive"}, {"molecule": "Cc1cccc(C(=O)NNc2ncnc3c2cnn3C)c1", "activity change, negative = inhibition": "inactive"}, {"molecule": "N[C@@H](Cc1ccccc1)C(=O)N1CCC(C(=O)NCC(=O)Nc2ccc(F)cc2)CC1", "activity change, negative = inhibition": "inactive"}, {"molecule": "Cc1cccc(-n2c(N)c(-c3nc4ccccc4n3C)c3nc4ccccc4nc32)c1", "activity change, negative = inhibition": "inactive"}, {"molecule": "O=c1[nH]cnc2c1C(c1ccccc1)c1c(nc[nH]c1=O)O2", "activity change, negative = inhibition": "inactive"}, {"molecule": "COc1ccc2nc3ccccc3nc2c1N", "activity change, negative = inhibition": "inactive"}, {"molecule": "O=c1nc(-c2ccccc2)c2cc(Br)ccc2[nH]1", "activity change, negative = inhibition": "inactive"}, {"molecule": "CN(C)C(=O)Oc1ccc2c(c1)O/C(=C\\c1ccccc1)C2=O", "activity change, negative = inhibition": "inactive"}, {"molecule": "O=C(Nc1cccnc1)c1cccs1", "activity change, negative = inhibition": "inactive"}, {"molecule": "Nc1nc(N)c2[nH]cnc2n1", "activity change, negative = inhibition": "inactive"}, {"molecule": "COc1ccc(CC(=O)NNc2ncnc3c2cnn3C)cc1", "activity change, negative = inhibition": "inactive"}, {"molecule": "COc1cc(/C=N/NC(=O)CNS(=O)(=O)c2ccc(C)cc2)cc(OC)c1OC", "activity change, negative = inhibition": "inactive"}, {"molecule": "COc1ccccc1C(=O)NNC(=O)c1csc(N2CCOCC2)n1", "activity change, negative = inhibition": "inactive"}, {"molecule": "CCCCN(C(=O)c1ccc([N+](=O)[O-])o1)c1c(N)n(CCCC)c(=O)[nH]c1=O", "activity change, negative = inhibition": "inactive"}, {"molecule": "CC1CN2C(c3ccc(Cl)cc3)=CSC2=N1", "note": "(configuration not stated)", "activity change, negative = inhibition": "inactive"}, {"molecule": "O=C(O)CC1S/C(=N/N=C/c2ccc(-c3ccccc3[N+](=O)[O-])o2)NC1=O", "note": "(configuration not stated)", "activity change, negative = inhibition": "inactive"}, {"molecule": "Cc1cc(C(=O)N/N=C/c2ccc(-c3ccc(C)c(Cl)c3)o2)n[nH]1", "activity change, negative = inhibition": "inactive"}, {"molecule": "O=C1N=c2ccccc2=C1c1[nH]c(=S)[nH]c1O", "activity change, negative = inhibition": "inactive"}, {"molecule": "CCCCn1c(N)c(N(Cc2ccccc2OC)C(=O)C(C)C)c(=O)[nH]c1=O", "activity change, negative = inhibition": "inactive"}, {"molecule": "FC(F)(F)c1nc2cc3nc4ccccc4[nH]c3cc2n1", "activity change, negative = inhibition": "inactive"}, {"molecule": "Cc1c(CN2CCCC(C)C2)c(O)n(CCO)c(=O)c1C#N", "note": "(configuration not stated)", "activity change, negative = inhibition": "inactive"}, {"molecule": "CCOc1ccc(/C=C/C(=O)c2ccccc2)cc1", "activity change, negative = inhibition": "inactive"}, {"molecule": "CCN(CC(=O)Nc1ccc(NC(C)=O)cc1)Cc1c(O)ccc2cc(Br)ccc12", "activity change, negative = inhibition": "inactive"}, {"molecule": "COc1cc(/C=C2\\CCCc3c2nc2ccccc2c3C(=O)O)cc(OC)c1O", "activity change, negative = inhibition": "inactive"}, {"molecule": "O=C(O)c1[nH]c2ccccc2c1C(c1cc(Br)ccc1O)c1c(C(=O)O)[nH]c2ccccc12", "activity change, negative = inhibition": "inactive"}, {"molecule": "Cc1ccc(O)c(-c2cc(C(=O)Nc3ccc(S(=O)(=O)Nc4nc(C)cc(C)n4)cc3)[nH]n2)c1", "activity change, negative = inhibition": "inactive"}, {"molecule": "Cc1cccn2c(=O)c3cc(C(=O)NC(C)C)c(=N)n(Cc4ccncc4)c3nc12", "activity change, negative = inhibition": "inactive"}, {"molecule": "O=C(NN=C1C2CC3CC1CC(Cl)(C3)C2)c1ccccn1", "activity change, negative = inhibition": "inactive"}, {"molecule": "NC1=C([N+](=O)[O-])C(c2ccc3c(c2)OCO3)C2=C(CCCC2=O)O1", "note": "(configuration not stated)", "activity change, negative = inhibition": "inactive"}]}]}
